Laboratory results reported in patent US20250042969A1, “ANTIGEN DISCOVERY FOR T CELL RECEPTORS ISOLATED FROM PATIENT TUMORS RECOGNIZING WILD-TYPE ANTIGENS AND POTENT PEPTIDE MIMOTOPES” (The Board of Trustees of the Leland Stanford Junior …, priority 2017, published 2025).
No end group written: not given here.

How the values were obtained:
[1] = system: TCR 4B; assay: CD69 activation of SKW-3 T cells expressing TCR 4B co-cultured with peptide-pulsed T2 cells; settings: T2 cells pulsed with 100 μM peptide 3 hours, co-incubated 18 hours, flow cytometry
Excerpt: Measuring T cell activation in co-culture assays. The four TCRs identified from the colorectal cancer patients that selected peptides from the library were cloned into a MSCV-based vector pMIG II in α-P2A-β configuration using the wildtype signal peptides of the TCR variable genes and full length, unmodified constant regions. The P2A skip sequence allows for 1:1 stoichiometric expression of the TCRs. A MSCV-based vector pMIG II was also used to generate human CD3 in the format of δ-F2A-γ-T2A-ε-P2A-ζ. A packaging vector pCL10A was used to incorporate env, gag, and pol to allow for human mammalian tropism and viral generation. The vectors introduced puromycin and zeocin selectivity into infected cells. […] The viruses were generated using X-tremeGENE 9 DNA transfection reagent (Sigma-Aldrich) in serum-free DMEM. In cell culture, 2% FBS DMEM was used to recover the cells and media was changed at 12 hours. […] The 2 mL virus of TCR and 2 mL virus of human CD3 was used to co-infect 2×10^6 SKW-3 cells with 5 ug/mL polybrene (Millipore) by spinning for 2 hrs at 2500 rpm at 32° C. The virus was removed and replaced with media and cells cultured. The transduced SKW-3 cells were cultured after 2-3 days in 20 ug zeocin and 1 ug puromycin indefinitely to select for TCR and human CD3 co-expression. Cells were then co-stained for TCR (IP26, BioLegend) and human CD3 (UCHT1, BioLegend) and sorted on the SH800 cell sorter (Sony Biotechnology Inc.).
The transduced SKW-3 cells were co-cultured with TAP-deficient T2 cells in a 2:1 ratio with various peptide dilutions. The top 5 synthetic peptides isolated from the yeast-display selections were tested along with predictions determined from the 3 prediction algorithms. Peptides were synthesized to >70% purity (Genscript) (Elim Biopharm) and resuspended in dimethylsulfoxide to 20 mM and stored at −20° C. CD69 (FN50, BioLegend) was measured at 18 hours to detect early T cell activation by flow cytometry using the Accuri C6 (BD Biosciences). SKW-3 T cells were detected by UCHT1 staining and checked for TCR and CD3 expression. T2 cells were checked for HLA-A*02 expression by antibody (BB7.2, BioLegend). Data was analyzed using FlowJo version 10 (FlowJo, LLC) and samples were gated on SKW-3 cells by forward and side scatter and UCHT1+ cells followed by analysis for CD69 expression. Experiments were done in biological triplicate and technical triplicate. P-values were calculated by ordinary one-way ANOVA in Prism and experiments plotted with either standard deviation or standard error of the mean as indicated.
T-cell stimulation assays using SKW-3 cells. Data is analyzed using Flowjo to gate SKW-3 cells and CD3^+ group to identify T cells. T cells are then gated on CD69 expression using the negative control (no peptide). The median MFI expression of CD69 in the CD3^+ group and the percentage of cells expressing CD69 have been analyzed. One-way ordinary ANOVA was determined for both analyses using Prism in comparison to the negative control (no peptide). The 100 μM peptide stimulation is completed in biological and technical triplicate. Only one of the biological triplicates is shown. The peptide titration experiments were done in biological triplicate. All biological triplicates were analyzed collectively.

[2] = system: NKI2; assay: IFNγ production by NKI2-transduced peripheral blood lymphocytes with peptide-pulsed JY cells; assay type: cell-based, human; settings: 1:1 with peptide-pulsed JY cells, 5-hour incubation, intracellular staining
Procedure: CDK4-specific TCRs clone 10 (NKI1) and 17 (NKI2) were derived from TILs of a melanoma patient that were screened with HLA multimers loaded with predicted neoantigens, essentially as described. The variable parts of both TCRs were cloned into a retroviral vector encoding the murine TCR α and β constant domains. FLYRD18 packaging cells were plated in 10 cm dishes at 1.2×10^6 cells/well. After one day, cells were transfected with 10 μg retroviral vector DNA encoding the CDK4 TCRs using 25 μl X-tremeGENE HP DNA (Sigma-Aldrich). After 48 hrs, retroviral supernatant was isolated and transferred to retronectin-coated 24-well plates and centrifuged for 90 minutes at 430 g. PBMCs were activated and selected with anti-CD3/CD28 beads (ThermoFisher) at a bead-to-cell ratio of 3:1. Forty-eight hours after stimulation, T cells were plated at 0.5×10^6 cells/mL on virus-coated plates. Surface expression of the introduced CDK4 TCRs on transduced T cells was measured using APC labeled CDK4 R>L HLA-A*02:01 tetramers in combination with anti-murine VB TCR-PE labeled antibody (BD Biosciences). Cells were analyzed using a FACSCalibur (Becton Dickinson). JY cells were pulsed with the CDK4 peptide or the predicted peptides at the indicated concentrations for 1 hr at 37° C. and then washed two times. […]

[3] = system: TCR 3B; assay: CD69 activation of SKW-3 T cells expressing TCR 3B co-cultured with peptide-pulsed T2 cells; settings: T2 cells pulsed with 100 μM peptide 3 hours, co-incubated 18 hours, flow cytometry
Target sequence in this assay (as listed by the source): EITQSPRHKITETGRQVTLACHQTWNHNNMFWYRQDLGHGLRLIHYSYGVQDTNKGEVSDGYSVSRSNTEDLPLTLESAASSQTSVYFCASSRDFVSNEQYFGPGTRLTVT
Target sequence in this assay (P61769 21-119): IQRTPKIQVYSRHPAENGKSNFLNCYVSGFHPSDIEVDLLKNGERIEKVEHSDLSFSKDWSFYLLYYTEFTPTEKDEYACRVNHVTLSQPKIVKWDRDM
Target sequence in this assay (as listed by the source): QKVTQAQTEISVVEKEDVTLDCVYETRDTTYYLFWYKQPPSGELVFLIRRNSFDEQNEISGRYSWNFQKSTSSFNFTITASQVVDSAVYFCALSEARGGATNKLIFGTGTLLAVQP
Excerpt: (§2) Measuring T cell activation in co-culture assays. The four TCRs identified from the colorectal cancer patients that selected peptides from the library were cloned into a MSCV-based vector pMIG II in α-P2A-β configuration using the wildtype signal peptides of the TCR variable genes and full length, unmodified constant regions. The P2A skip sequence allows for 1:1 stoichiometric expression of the TCRs. A MSCV-based vector pMIG II was also used to generate human CD3 in the format of δ-F2A-γ-T2A-ε-P2A-ζ. A packaging vector pCL10A was used to incorporate env, gag, and pol to allow for human mammalian tropism and viral generation. […]
(§3) The transduced SKW-3 cells were co-cultured with TAP-deficient T2 cells in a 2:1 ratio with various peptide dilutions. The top 5 synthetic peptides isolated from the yeast-display selections were tested along with predictions determined from the 3 prediction algorithms. […] CD69 (FN50, BioLegend) was measured at 18 hours to detect early T cell activation by flow cytometry using the Accuri C6 (BD Biosciences). SKW-3 T cells were detected by UCHT1 staining and checked for TCR and CD3 expression. […] Data was analyzed using FlowJo version 10 (FlowJo, LLC) and samples were gated on SKW-3 cells by forward and side scatter and UCHT1+ cells followed by analysis for CD69 expression. […]
(§4) T-cell stimulation assays using SKW-3 cells. […] All biological triplicates were analyzed collectively.

[4] = system: TCR 2A; assay: CD69 activation of SKW-3 T cells expressing TCR 2A co-cultured with peptide-pulsed T2 cells; settings: T2 cells pulsed with 100 μM peptide 3 hours, co-incubated 18 hours, flow cytometry
Target sequence in this assay (P61769 21-119): as the sequence (P61769 21-119) above
Target sequence in this assay (as listed by the source): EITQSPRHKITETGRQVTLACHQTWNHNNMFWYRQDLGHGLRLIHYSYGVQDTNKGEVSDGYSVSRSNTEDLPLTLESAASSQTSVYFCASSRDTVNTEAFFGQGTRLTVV
Excerpt: as §2, §3, §4

[5] = system: SKW-3 cells expressing TCR 3B; assay: pHLA tetramer staining of SKW-3 cells expressing TCR 3B; assay type: binding, human
[6] = system: SKW-3 cells expressing TCR2A; assay: pHLA tetramer staining of SKW-3 cells expressing TCR2A; assay type: binding, human
[7] = system: TCR 3B; assay: TCR 3B tetramer staining of yeast expressing single-chain peptide-HLA-A*02:01; assay type: binding, human; settings: 400 nM TCR tetramer
Procedure: (§1) Individual yeast clones isolated from the selections or competent yeast electroporated with reconstructed peptide-HLA constructs identified from the deep sequencing were stained with 400 nM TCR tetramer labeled with SA-647 or SA-647 alone in combination with anti-epitope tag.
Target sequence in this assay (as listed by the source): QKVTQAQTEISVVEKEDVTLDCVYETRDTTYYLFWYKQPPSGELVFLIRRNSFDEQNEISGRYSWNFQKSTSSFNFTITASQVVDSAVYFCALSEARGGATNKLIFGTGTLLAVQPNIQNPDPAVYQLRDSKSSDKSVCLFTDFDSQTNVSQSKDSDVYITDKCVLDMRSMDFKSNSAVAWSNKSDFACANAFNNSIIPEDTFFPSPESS
Target sequence in this assay (as listed by the source): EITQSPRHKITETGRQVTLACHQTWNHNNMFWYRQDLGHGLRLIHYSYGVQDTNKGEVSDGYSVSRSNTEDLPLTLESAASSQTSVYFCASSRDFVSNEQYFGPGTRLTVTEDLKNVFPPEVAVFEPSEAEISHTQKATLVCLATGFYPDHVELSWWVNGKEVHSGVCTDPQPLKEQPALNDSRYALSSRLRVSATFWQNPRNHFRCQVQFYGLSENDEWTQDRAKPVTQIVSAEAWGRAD

[8] = system: TCR 2A; assay: TCR 2A tetramer staining of yeast expressing single-chain peptide-HLA-A*02:01; assay type: binding, human; settings: 400 nM TCR tetramer
Procedure: as §1
Target sequence in this assay (as listed by the source): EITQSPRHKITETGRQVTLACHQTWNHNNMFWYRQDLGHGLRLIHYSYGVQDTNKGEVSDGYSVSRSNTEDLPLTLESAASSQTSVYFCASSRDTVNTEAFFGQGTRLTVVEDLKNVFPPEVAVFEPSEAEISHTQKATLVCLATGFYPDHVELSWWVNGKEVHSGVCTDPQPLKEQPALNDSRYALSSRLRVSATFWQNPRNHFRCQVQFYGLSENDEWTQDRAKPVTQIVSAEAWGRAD

## TMETIDWKV
[1]
  CD69 activation of TCR 4B T cell line: stimulated

## NVEYYDIKL
[1]
  CD69 activation of TCR 4B T cell line: stimulated

## NMEYMTWDV
[1]
  CD69 activation of TCR 4B T cell line: stimulated

## ALDSRSEHFM [top peptide mimotope selected by NKI2]
[2]
  IFNγ production by NKI2 transduced T cells: stimulated these cells as potently as the CDK4 neoantigen

## MMDFFNAQM
[3]
  CD69 activation of TCR 3B T cell line: found to stimulate T cells
[4]
  CD69 activation of TCR 2A T cell line: found to stimulate T cells

## TLEELDWCL
[1]
  CD69 activation of TCR 4B T cell line: stimulated

## VLEEVDWLI
[1]
  CD69 activation of TCR 4B T cell line: stimulated

## MMDFFNAQM-HLA-A*02:01: U2AF2 peptide MMDFFNAQM in complex with HLA-A*02:01, as yeast single-chain trimer or refolded tetramer (not fully specified (C-terminus); also: in complex with HLA-A*02:01 (single-chain trimer or refolded tetramer))
[5]
  pHLA tetramer staining of SKW-3 cells expressing TCR 3B: failed to stain
[6]
  pHLA tetramer staining of SKW-3 cells expressing TCR2A: failed to stain
[7]
  TCR 3B tetramer staining of yeast: lack of TCR tetramer staining
[8]
  TCR 2A tetramer staining of yeast: lack of TCR tetramer staining

## KLEQLDWTV
[1]
  CD69 activation of TCR 4B T cell line: stimulated

## VLDFQGQL
[4]
  CD69 activation of TCR 2A T cell line: able to stimulate the receptor

## LLEDLDWDV
[1]
  CD69 activation of TCR 4B T cell line: stimulated
